Laboratory results reported in patent publication US6916905B2, “Dmt-Tic di-and tri-peptidic derivatives and related compositions and methods of use” (The United States of America as represented by the …, priority 2000, dated 2005).
Entries after “also recorded” stand apart in the source; their conditions may differ. Like-named read-outs stand apart in the source and are kept apart here. Marks after values point to notes of the source that are not given here. Non-standard residues stand in square brackets, D forms with d. Residues, ends and D or L forms follow the SMILES beside them. *: point of attachment. Dmt = Cc1cc(O)cc(C)c1C[C@H](N)C(=O)O; Tic = O=C(O)[C@@H]1Cc2ccccc2CN1; NHPh = c1ccc(N*)cc1

Legend:
δ-opioid receptors [1] = molecular target: T1, δ-opioid receptors (Rattus norvegicus, UniProt P33533); details: selectivity; Kiδ from [3H]DPDPE; cells marked a/b: Salvadori et al. (1995), (1997); cited from earlier work
T1 construct: assayed with a rat brain synaptosomal preparation (P2); from tissue; host or cells: rat brain P2 synaptosomes

δ receptors [2] = molecular target: T2, δ receptors (Mus musculus, UniProt P32300); assay: MVD functional pharmacological bioassay (Example 75); parameters: A single MVD was suspended in 4 ml modified Kreb's solution; from tissue; host or cells: mouse vas deferens
μ receptors [3] = molecular target: T3, μ receptors (Cavia porcellus, UniProt P97266); assay: GPI functional pharmacological bioassay (Example 75); parameters: species or system guinea pig; details: μ agonism
Method: The in vitro pharmacological assays used a single MVD for δ receptors and a 2- to 3-cm segment of GPI for μ receptors with each suspended in 20 ml organ baths containing balanced salt solutions in a physiological buffer (Salvadori et al., Mol. Med., 1: 678-689 (1995)). […] Data were obtained from 4 independent assays and tissue samples. Agonism is expressed as the IC50 (nM) value and antagonism as pA2 (Labarre et al., Eur. J. Pharm., 406: R1-R3 92000)).

μ receptors [4] = molecular target: T4, μ receptors (Rattus norvegicus, UniProt P33535); assay: Radio-receptor competition assay, rat brain synaptosomes, [3H]DAGO (Example 74); assay type: binding; details: for Ki: rat brain P2 synaptosomes, [3H]DAGO
T4 construct: assayed with a rat brain synaptosomal preparation (P2); from tissue; host or cells: rat brain P2 synaptosomes
Method: (§1) After 120 min incubation at room temperature (23-24° C.), the samples were rapidly filtered through Whatman GF/C glass fiber filers and washed three times with 2 ml ice-cold 0.05 M Tris, pH 7.4-7.5, containing 0.1% BSA. Presoaking filters in 0.1% polyethylenimine is only required in assays with peptides carrying an overall positive charge, such as dynorphin or nociceptin (Guerrini et al., J. Med. Chem., 40: 1789-1793 (1997)). Non-specific binding was determined using 2 μM unlabeled DPDPE or DAGO for δ or μ assays, respectively. The Ki data, determined according to Cheng and Prusoff (Cheng et al., Biochem. Pharmacol., 22: 3099-3108 (1973)), represent the means±SE from 3 or more independent assays using at least 3 different synaptosome preparations and testing the analogues with 5-8 graded dosages over 2-3 orders of magnitude in concentration.

δ receptors [5] = molecular target: T5, δ receptors (Rattus norvegicus, UniProt P33533); assay: Radio-receptor competition assay, rat brain synaptosomes, [3H]DPDPE (Example 74); assay type: binding; details: for Ki: rat brain P2 synaptosomes, [3H]DPDPE, read-out: Receptor affinity (nM) Kiδ; for μ/δ: selectivity Kiμ/Kiδ
T5 construct: assayed with a rat brain synaptosomal preparation (P2); from tissue; host or cells: rat brain P2 synaptosomes
Method: as §1

δ-opioid receptors [6] = molecular target: T1, δ-opioid receptors; details: radioligand; Kertesz et al. (1998); cited from earlier work
μ-opioid receptors = molecular target: T6, μ-opioid receptors (Rattus norvegicus, UniProt P33535); assay: Rat brain synaptosome (P2) binding, [3H]DAGO (Example 47); details: rat brain synaptosomes (P2); mean ± SEM, n in parentheses; read-out: Kiμ (nM) [^3H]DAGO
T6 construct: assayed with a rat brain synaptosomal preparation (P2); from tissue; host or cells: rat brain P2 synaptosomes

hMDR-1 = hMDR-1 (Homo sapiens, UniProt P08183); assay: Calcein AM assay for Pgp in hMDR-1 transfected G-185 fibroblasts (Example 49); details: calcein fluorescence
Method: Stably transfected G-185 fibroblasts containing hMDR-1 and NIH 3T3 cell lines were grown to confluent monolayers in DMEM containing 4.5 g glucose/1, 10% fetal calf serum, L-glutamine, penicillin (50 units/ml), streptomycin (50 μg/ml) and 1 mM sodium pyruvate in 5% CO2 at 37° C. G-185 cells were maintained in […] colchicine.
The assay for Pgp is based on the diffusion of non-fluorescent calcein AM across the cell membrane. Calcein AM is then hydrolyzed and accumulates as the fluorescent calcein. In transfected cells expressing excess hMDR-1, Pgp extrudes calcein AM from the cell before hydrolysis occurs; inhibition of hMDR-1 results in the accumulation of intracellular calcein. Transfected G-185 cells and the NIH 3T3 cells were analyzed in triplicate using seven graded dosages of verapamil or the opioid peptides in 96-well plates. Cells (2.5×10^6/well) were incubated in 100 μl culture medium for 15 min at 37° C. and 50 μl of 1 μM calcein AM in PBS, plus 50 μl of verapamil or one of the present inventive compounds in PBS, or 100 μl of PBS alone (control) were added. Cells were mixed and incubated for 15 min at 37° C., then centrifuged for 5 min at 2,000×g, and then washed three times in 200 μl PBS. Cell pellets were resuspended in 200 μl PBS and transferred to white Microfluor Plates (Nunc, Copenhagen, Denmark) in order to measure calcein-specific fluorescence (494 nm absorption; 517 nm emission). Internal controls were carried out with each experiment using verapamil and PBS in order to compare the consistency between cell preparations. Means±SE (error bars) were determined and plotted using Prism™ (GraphPad, San Diego, Calif.).

δ-opioid receptors [7] = molecular target: T1, δ-opioid receptors; assay: Rat brain synaptosome (P2) binding, δ antagonist [3H]N,N(CH3)2-Dmt-Tic-OH (Example 47); details: selectivity; Kiδ from antagonist radioligand [3H]N,N(CH3)2-Dmt-Tic-OH
Method: (§2) Briefly, the agonists [^3H]DPDPE (30-60 Ci/mmol, NEN-DuPont) and [^3H]DAGO (30-60 Ci/mmol, Amersham) were used to label δ and μ sites, respectively, under saturation binding conditions (2 hrs at 22° C.). Excess unlabeled peptide (2 μM) established non-specific binding levels and the labeled membranes were rapidly filtered on Whatman GF/C glass fibre filters, thoroughly washed, dried and measured for radioactivity using CytoScint (ICN, Irvine, Calif.). […] The affinity constants (Ki) were calculated according to Cheng and Prusoff (Biochem. Pharmacol. 22: 3099-3108 (1973)).

δ receptors [8] = molecular target: T2, δ receptors; details: for MVD Ke: δ antagonism, Ke = antilog of pA2
Method: The functional bioactivity of the present inventive compounds was assessed using standard functional bioassays of δ and μ activity in MVD and GPI (Salvadori et al. (1995), supra; and Salvadori et al., J. Med. Chem. 36: 3748-3756 (1993)). […] Dose-response curves were obtained (Salvadori et al. (1995), supra) for both tissues. […] Data were derived from at least four independent tissue samples and dose-response curves from which the pA2 values were determined (Salvadori et al. (1997), supra) according to Arunlakshana and Schild (Br. J. Pharmacol. 14: 48-58 (1959)).

δ-opioid receptors [9] = molecular target: T1, δ-opioid receptors; assay: Rat brain synaptosome (P2) binding, agonist [3H]DPDPE (Example 47); details: rat brain synaptosomes (P2); mean ± SEM, n in parentheses; read-out: Kiδ(nM) [^3H]DPDPE
Method: as §2

δ receptors [10] = molecular target: T2, δ receptors; parameters: A single MVD was suspended in 4 ml modified Kreb's solution; from tissue; host or cells: mouse vas deferens; details: Balboni et al. (2000); cited from earlier work
μ receptors [11] = molecular target: T3, μ receptors; details: Balboni et al. (2000); read-out: μ agonist activity IC50, published data; cited from earlier work
[12] = read-out: Receptor affinity (nM) Kiμ

T5 sequence (P33533 whole entry): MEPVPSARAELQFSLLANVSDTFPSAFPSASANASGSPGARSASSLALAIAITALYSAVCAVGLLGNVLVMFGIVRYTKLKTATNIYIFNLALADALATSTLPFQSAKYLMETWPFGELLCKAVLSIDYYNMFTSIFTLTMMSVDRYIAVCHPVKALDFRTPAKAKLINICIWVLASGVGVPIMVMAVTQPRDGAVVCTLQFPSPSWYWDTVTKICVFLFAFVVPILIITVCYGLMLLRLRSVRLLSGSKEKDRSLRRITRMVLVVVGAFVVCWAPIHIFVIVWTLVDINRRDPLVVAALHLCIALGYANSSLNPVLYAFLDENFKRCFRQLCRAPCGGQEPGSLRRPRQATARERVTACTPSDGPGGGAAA
T1 sequence (P33533 whole entry): as above
T4 sequence (P33535 whole entry): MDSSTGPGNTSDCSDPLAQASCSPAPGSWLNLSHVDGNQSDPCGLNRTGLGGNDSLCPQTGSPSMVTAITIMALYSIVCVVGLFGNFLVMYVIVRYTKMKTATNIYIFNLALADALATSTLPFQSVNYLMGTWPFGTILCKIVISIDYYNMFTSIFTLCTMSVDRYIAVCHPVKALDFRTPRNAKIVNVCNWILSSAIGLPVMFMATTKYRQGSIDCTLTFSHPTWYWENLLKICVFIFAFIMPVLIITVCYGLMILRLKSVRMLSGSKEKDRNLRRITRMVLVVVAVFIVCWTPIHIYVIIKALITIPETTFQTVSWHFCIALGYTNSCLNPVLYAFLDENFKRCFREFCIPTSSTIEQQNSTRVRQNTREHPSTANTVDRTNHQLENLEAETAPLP
T6 sequence (P33535 whole entry): as above
T2 sequence (P32300 whole entry): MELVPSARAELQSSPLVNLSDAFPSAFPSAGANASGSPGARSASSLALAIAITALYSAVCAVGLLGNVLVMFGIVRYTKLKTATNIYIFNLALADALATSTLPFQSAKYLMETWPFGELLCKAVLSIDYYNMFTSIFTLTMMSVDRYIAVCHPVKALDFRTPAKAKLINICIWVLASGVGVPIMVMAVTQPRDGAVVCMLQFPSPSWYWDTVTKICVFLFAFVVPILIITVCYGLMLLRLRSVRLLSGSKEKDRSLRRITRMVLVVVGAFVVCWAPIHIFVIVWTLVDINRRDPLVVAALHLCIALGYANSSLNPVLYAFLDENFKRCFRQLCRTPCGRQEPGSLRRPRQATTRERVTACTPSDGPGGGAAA
hMDR-1, sequence (P08183 whole entry): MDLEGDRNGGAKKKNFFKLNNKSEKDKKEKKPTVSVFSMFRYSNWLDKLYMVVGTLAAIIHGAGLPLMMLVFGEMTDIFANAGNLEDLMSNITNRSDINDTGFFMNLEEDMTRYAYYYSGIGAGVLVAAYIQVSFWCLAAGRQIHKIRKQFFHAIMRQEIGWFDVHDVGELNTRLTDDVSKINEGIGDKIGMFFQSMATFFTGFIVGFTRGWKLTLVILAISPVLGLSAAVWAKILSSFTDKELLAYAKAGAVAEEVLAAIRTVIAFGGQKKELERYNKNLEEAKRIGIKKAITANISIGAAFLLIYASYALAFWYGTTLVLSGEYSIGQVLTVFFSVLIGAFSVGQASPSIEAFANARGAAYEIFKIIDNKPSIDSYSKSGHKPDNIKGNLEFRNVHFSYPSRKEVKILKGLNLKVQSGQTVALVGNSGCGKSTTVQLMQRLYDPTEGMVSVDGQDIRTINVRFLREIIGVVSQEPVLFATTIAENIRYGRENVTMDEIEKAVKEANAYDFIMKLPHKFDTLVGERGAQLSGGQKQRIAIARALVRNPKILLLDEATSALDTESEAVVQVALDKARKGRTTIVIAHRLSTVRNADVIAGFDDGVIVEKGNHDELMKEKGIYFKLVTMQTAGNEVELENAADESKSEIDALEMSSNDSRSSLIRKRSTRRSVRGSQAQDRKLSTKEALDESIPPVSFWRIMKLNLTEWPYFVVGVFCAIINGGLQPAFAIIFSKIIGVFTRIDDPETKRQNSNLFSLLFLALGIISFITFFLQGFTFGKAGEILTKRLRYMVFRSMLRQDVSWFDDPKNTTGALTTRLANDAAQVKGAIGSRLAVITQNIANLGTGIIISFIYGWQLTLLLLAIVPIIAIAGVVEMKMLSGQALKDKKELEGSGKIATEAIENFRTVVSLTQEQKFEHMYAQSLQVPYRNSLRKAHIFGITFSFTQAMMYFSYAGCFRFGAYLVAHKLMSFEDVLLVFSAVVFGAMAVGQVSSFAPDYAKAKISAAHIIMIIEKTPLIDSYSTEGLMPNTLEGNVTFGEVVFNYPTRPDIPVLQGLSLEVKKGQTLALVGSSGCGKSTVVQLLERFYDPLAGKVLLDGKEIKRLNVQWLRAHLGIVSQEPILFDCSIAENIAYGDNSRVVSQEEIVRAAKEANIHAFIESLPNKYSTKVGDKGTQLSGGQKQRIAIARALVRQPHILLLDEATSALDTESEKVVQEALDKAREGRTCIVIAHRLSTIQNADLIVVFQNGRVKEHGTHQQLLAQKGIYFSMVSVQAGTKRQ
T3 sequence (P97266 whole entry, looked up): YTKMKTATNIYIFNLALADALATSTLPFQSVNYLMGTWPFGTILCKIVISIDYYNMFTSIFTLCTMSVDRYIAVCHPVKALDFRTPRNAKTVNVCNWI

| Compound | Agonist K1μ/Kiδ (δ-opioid receptors [1]) | Ki (μ receptors [4]; [12]) [nM] | Ki (δ receptors [5]) [nM] | μ/δ (δ receptors [5]) | Ki (μ-opioid receptors) [nM] | Antagonist K1μ/Kiδ (δ-opioid receptors [7]) | MVD Ke (δ receptors [8]) [nM] | further results |
| --- | --- | --- | --- | --- | --- | --- | --- | --- |
| Cc1cc(O)cc(C)c1C[C@H](N)C(=O)N1Cc2ccccc2C[C@H]1C(N)=O [H-Dmt-Tic-NH2] (H-[Dmt]-[Tic]-NH2) | 227^a |  |  |  |  |  |  |  |
| Cc1cc(O)cc(C)c1C[C@H](N)C(=O)N1Cc2ccccc2C[C@H]1C(=O)NCC(=O)Nc1ccccc1 [Compound 27, H-Dmt-Tic-Gly-NH-Ph] (H-[Dmt]-[Tic]-Gly-NHPh) |  | 0.16 | 0.042 | 3.6 |  |  |  | EC50 (δ receptors [2]): 3.02 nM; δ activity on MVD, in words (δ receptors [2]): potent δ-agonist activity; also recorded: essentially equivalent activity as a δ agonist and a μ agonist; lower antagonist activity of N,N(Me)2-Dmt-Tic-OH against this agonist than against deltorphin C and 24 (δ receptors [2]; MVD): 5 fold; MVD, antagonist activity (pA2) N,N(CH3)2-Dmt-Tic-OH (δ receptors [2]; pA2 of N,N(CH3)2-Dmt-Tic-OH against the listed δ agonist): 9.04; MVD, antagonist activity (pA2) naloxone (δ receptors [2]; pA2 of naloxone against the listed δ agonist): 7.47; Functional Bioactivity GPI (pEC50) (μ receptors [3]): 8.59; Ki (μ receptors [4]; Receptor affinity (nM) Kiμ): < 1 nM |
| [^3H]N,N-(CH3)2-Dmt-Tic-OH |  |  |  |  |  |  |  | Kd (δ-opioid receptors [6]): 0.39 nM |
| Cc1cc(O)cc(C)c1C[C@@H](C(=O)N1Cc2ccccc2C[C@H]1C(=O)O)N(C)C [N,N(Me)2-Dmt-Tic-OH, reference compound] | 20636^b |  |  |  | 2440 ± 462 | 34785 |  | inhibition of hMDR-1 (Pgp), in words (hMDR-1): inactive; MVD pA2 (range) (δ receptors [8]; δ antagonism against deltorphin C, mean (range)): 9.4 |
| Cc1cc(O)cc(C)c1C[C@H](N)C(=O)N1Cc2ccccc2C[C@H]1C(=O)O [H-Dmt-Tic-OH, reference compound] (H-[Dmt]-[Tic]-OH) | 150800^a | 3320 |  |  | 3320 ± 435 |  | 5.7 |  |
| Cc1cc(O)cc(C)c1C[C@H](N)C(=O)N1Cc2ccccc2C[C@H]1C(=O)N[C@@H](C)C(N)=O [H-Dmt-Tic-Ala-NH2, reference compound] (H-[Dmt]-[Tic]-Ala-NH2) | 195^a | 47 | 0.22 | 195 | 47 ± 3.4 | 68 | 9.0 | Ki (δ-opioid receptors [9]): 0.24 ± 0.02 nM; inhibition of hMDR-1 (Pgp), in words (hMDR-1): inactive |
| Cc1cc(O)cc(C)c1C[C@H](N)C(=O)N1Cc2ccccc2C[C@H]1C(=O)N[C@@H](C)C(=O)O [H-Dmt-Tic-Ala-OH, reference compound] (H-[Dmt]-[Tic]-Ala-OH) | 2852^a |  |  |  |  | 2784 | 4.0 |  |
| Cc1cc(O)cc(C)c1CC(N)C(=O)N1Cc2ccccc2CC1c1nc2ccccc2[nH]1 (stereo not drawn) [Compound 23, 2-amino-1-[3-(1H-benzoimidazole-2-yl)-3,4-dihydro-1H-isoquinoline-2-yl]-3-(4-hydroxyl-2,6-dimethylphenyl)-propane-1-one] |  | 7.22 | 0.13 | 7.28 |  |  |  | reduction of electrical stimulation of the tissue (δ receptors [2]; high concentration (up to 1 μM)): 83%; δ antagonism pA2, published data (δ receptors [10]): 7.67; increase in μ receptor affinity relative to H-Dmt-Tic-NH2 (μ receptors [4]): ~40 fold; IC50 (μ receptors [11]): 30 nM; δ binding affinity greater than H-Dmt-Tic-ol (δ receptors [5]): 3 fold; δ binding affinity higher than H-Dmt-Tic-NH2 (δ receptors [5]): 10 fold |
